In test [1] the test system is COX-2 mRNA. In words: Gene expression microarray analysis in Clonetics hMSC cells. The settings on record: peptide 1000 ng/ml. It counts as cell-based, human. As for the experimental part: Materials and Methods: The effect of the peptide of SEQ ID No. 8 treatment on gene expression was assessed in the Clonetics hMSC cells using gene expression microarray analysis as previously described (Locklin et al., 2001). Briefly, cells were plated in five T-150 vented flasks at a density of 1.0×10^6 cells per flask in growth medium and cultured at 37° C. for 48 hours. Flasks containing either vehicle alone or the peptide of SEQ ID No. 8 (1000 ng/ml) were cultured for 24 hr or for 48 h in standard differentiation medium. At each time point, the vehicle and treatment flasks were trypsinized, cells removed and total RNA was extracted for analysis via the Qiagen Rneasy Kit (Qiagen). 8 μg of total RNA were amplified and biotin labeled. The mixture was hybridized to a U95A human gene expression microarray (Affymetrix) containing probes for 12,600 human genes. The chips were then washed, stained with phycoerythrin-streptavidin and read with an Affymetrix scanner. Hybridization intensity values to mRNA frequency were calculated in molecules per million. Analysis of intensity values was conducted using Spotfire Decision Site (Somerville, Mass.) software.

Test [2] deals with primary osteoblasts collected from fetal mouse calvaria. In words: Alkaline phosphatase (ALP) activity in primary osteoblasts under suboptimal BMP-2. Type of test: cell-based. As for the experimental part:
The peptide of SEQ ID No. 8 was added to this culture system at 0, 0.2, 0.4, 1.0, 2.0, and 4.0 μM. The levels of ALP were evaluated on days 0, 3, and 7.

Another test concerns dorsal muscle of mice. In words: Ectopic bone formation in mouse dorsal muscle with implanted polymer. It counts as in vivo, ICR mice. The source says: It has been known that BMP causes bone formation when administered or implanted in mammals when given. The activity can be enhanced when given in the appropriate delivery vehicle.
The mice were sacrificed 3 weeks later and the newly formed bones were isolated for evaluation using soft X-ray radiograph and bone mineral density determination.

For test [3], the system named is hemi-calvariae. Kind of test: Mouse calvaria organ culture assay (PGE2 ELISA, histology). Conditions: peptide 1, 10, 100 μg/mL daily for seven days. It counts as cell-based, Swiss Webster mice. The source says:
Methods: Calvarial organ cultures have been used for many years to study the regulation of bone formation and bone resorption. An advantage of this method compared to in vivo studies is the absence of confounding effects (such as hormonal and mechanical influences) meaning a more direct effect of the test substances on bone tissue can be determined. Also compared to isolated cell systems, interrelationships between the different cell types in the bone and between these cells and the bone matrix are preserved.
Briefly, hemi-calvariae were isolated from 4 day old Swiss Webster mice and incubated in media on steel mesh grids. The peptide of SEQ ID NO. […] Samples of the conditioned media were collected daily for analysis of PGE2 concentration (R&D Systems ELISA kit). At the end of the culture the bones were analyzed for new bone formation and number of osteoblasts using histology.

For test [4], the system named is MC3T3-E1 subclone 4 cells. In words: BMP-2 stimulated PGE2 production by MC3T3 cells (ELISA). Type of test: cell-based, mouse. The settings on record: 24 hours, with BMP-2. As for the experimental part: Methods: MC3T3-E1 subclone 4 cells are neonatal mouse derived calvarial preosteoblasts with fibroblast morphology. […] For this experiment the MC3T3 cells were plated 10^5 cells per well in 24 well plates in growth medium (alpha MEM+1 mM sodium pyruvate+10% fetal bovine serum (FBS)). After 24 hours of culture the media was removed and replaced with assay media (alphaMEM+1 mM sodium pyruvate+2% FBS) containing the test substances. Each test group utilized 4 wells. After incubation for a further 24 hours the media was removed and the levels of PGE2 were determined using an ELISA (R&D Systems).

For test [5], the system named is hard tissue forming cells. Kind of test: Biological activities for the purpose of the invention (test not specified).
Test [6] deals with COX-2 mRNA. The settings on record: Nagel et al., Journal of Cellular Biochemistry, 2004; cited from earlier work.
Test [7] has as its system hemi-calvariae. The settings on record: Middleton-Hardie et al., ASBMR 2005; cited from earlier work.
In a further test the test system is human mesenchymal cells. Kind of test: PGE2 in human mesenchymal cells in culture. It counts as cell-based. The settings on record: peptide alone.

Consider TDLQERGDNDISPFSGDGQPFKD [SEQ ID No. 8], for which the “COX-2 mRNA increase (summary in discussion)” value with COX-2 mRNA [1] is given as ~3 fold. Moreover, the “COX-2 mRNA increase” value with COX-2 mRNA [1] (24 h) is 3.6 fold. Further, the “COX-2 mRNA increase” value in the test with COX-2 mRNA [1] (48 h) was 2.2 fold. Besides, in [2] (2 μM peptide with 25 ng/mL BMP-2), the “ALP activity increase as compared with BMP-2 treated cells without the peptide” value is listed as ~2 times. Besides, the “ALP activity in osteoblastic cells” value in [2] (BMP-2 25 ng/mL plus peptide 0.2-4.0 μM, dose dependent) was “significantly increased”. In the test with dorsal muscle of mice (3 μg BMP-2 in 30 mg polymer, peptide 50, 250 or 1250 μg, three weeks), the “Effect of the peptide on BMP-2 bone formation (size and mineral density of ectopic ossicles)” value is reported as “significant enhancement”. In the test on dorsal muscle of mice (3 μg rhBMP-2, varying amounts of peptide), the “Bone formation when peptide added to suboptimal dose of rhBMP-2” value was “significant and dose dependent increase”. In addition, the “Efficacy of the peptide on bone formation (size and mineral density of ectopic ossicles)” value in the test with dorsal muscle of mice (5 μg BMP-2 in 30 mg polymer, peptide 50, 250 or 1250 μg, three weeks) is on record as “unclear”. For the same sequence, the PGE2 production result with hemi-calvariae [3] is recorded as “significant increases”. In addition, in the test on hemi-calvariae [3] (histology), the bone cell density entry is given as “significant increases”, the osteoblast surface result is on record as “significant increases” and the “parameters of new bone formation” value was “significant increases”. Also, the “BMP-2 induced PGE2 production” value in test [4] is given as “increases”. The “Biological activities relative to other sequences” value in [5] is “highest activities”. Moreover, the “COX-2 in human mesenchymal stem cells” value in the test on COX-2 mRNA [6] is on record as “upregulated”. Further, in the test on hemi-calvariae [7], the “production of PGE2 in mouse calvaria organ culture assay” value was “dose dependently upregulated”. The PGE2 increase entry in the test with human mesenchymal cells is “did not result in a significant increase”.

Values taken from patent publication US7638486B2, “Method for promoting hard tissue formation” (Acologix, Inc., priority 2005, dated 2009).
